Experimental data published in US20090044291A1, “DROUGHT-RESISTANT PLANTS AND METHOD FOR PRODUCING THE PLANTS” (D-Helix, priority 2006, published 2009).
Where two headings read alike, the source gives them in different places.

Legend:
[1] = target: T1, natural ABAR/CHLH protein (Arabidopsis thaliana, UniProt Q9FNB0); test: ABA binding assay with crude extracts of leaves (WT, RNAi, OE lines)
T1 construct: 50 μg proteins of the crude extracts from two-week-old Arabidopsis seedlings; from tissue; host or cells: crude extracts of two-week-old Arabidopsis seedlings / leaves of gl1 (WT), RNAi line 12 and overexpressor line 1
T1 sequence (Q9FNB0 50-1381): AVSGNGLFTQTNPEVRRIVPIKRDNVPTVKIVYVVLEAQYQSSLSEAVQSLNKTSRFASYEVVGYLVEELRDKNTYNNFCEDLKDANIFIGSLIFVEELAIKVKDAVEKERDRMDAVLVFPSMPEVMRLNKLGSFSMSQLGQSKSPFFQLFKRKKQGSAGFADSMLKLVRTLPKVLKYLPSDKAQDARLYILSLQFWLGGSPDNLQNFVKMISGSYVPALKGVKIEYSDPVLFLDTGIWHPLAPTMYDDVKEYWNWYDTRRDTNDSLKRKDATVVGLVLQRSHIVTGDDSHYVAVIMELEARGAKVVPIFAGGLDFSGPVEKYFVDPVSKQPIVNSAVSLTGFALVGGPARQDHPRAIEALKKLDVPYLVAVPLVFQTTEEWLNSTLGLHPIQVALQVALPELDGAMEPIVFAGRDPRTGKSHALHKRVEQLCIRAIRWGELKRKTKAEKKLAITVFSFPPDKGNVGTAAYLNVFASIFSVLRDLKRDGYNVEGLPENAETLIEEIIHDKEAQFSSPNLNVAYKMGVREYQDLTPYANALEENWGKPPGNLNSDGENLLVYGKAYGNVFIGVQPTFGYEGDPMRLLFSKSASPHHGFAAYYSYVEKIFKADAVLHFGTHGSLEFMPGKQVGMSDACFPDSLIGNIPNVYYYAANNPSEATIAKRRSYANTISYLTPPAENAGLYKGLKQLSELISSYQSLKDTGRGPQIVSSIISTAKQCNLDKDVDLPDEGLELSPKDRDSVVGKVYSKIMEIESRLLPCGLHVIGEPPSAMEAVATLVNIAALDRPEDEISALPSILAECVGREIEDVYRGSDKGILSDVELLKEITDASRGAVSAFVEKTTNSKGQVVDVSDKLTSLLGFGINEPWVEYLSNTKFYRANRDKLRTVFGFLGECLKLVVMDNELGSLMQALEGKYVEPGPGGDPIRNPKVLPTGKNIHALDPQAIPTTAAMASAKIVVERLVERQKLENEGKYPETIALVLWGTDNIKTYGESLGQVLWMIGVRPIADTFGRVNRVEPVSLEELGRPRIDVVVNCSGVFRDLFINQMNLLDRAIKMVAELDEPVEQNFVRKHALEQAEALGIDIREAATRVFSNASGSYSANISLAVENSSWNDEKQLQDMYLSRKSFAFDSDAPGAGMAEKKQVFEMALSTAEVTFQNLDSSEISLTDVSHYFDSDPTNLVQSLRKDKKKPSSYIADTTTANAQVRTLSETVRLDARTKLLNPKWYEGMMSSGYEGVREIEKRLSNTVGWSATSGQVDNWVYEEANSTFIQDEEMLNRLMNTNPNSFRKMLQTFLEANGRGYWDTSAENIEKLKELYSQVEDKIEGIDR
Description: (§1) The ABA-binding activity of ABAR was assayed according to the previously described procedures (Zhang, D. P. et al., Plant physiol. 128:714-725 (2002)) with modifications. The binding medium (medium A) contained 50 mM Tris-HCl (pH 7.0), 2 mM MgCl2, 1 mM CaCl2, and 250 mM mannitol. The medium for extracting the Arabidopsis natural ABAR/CHLH protein (medium B) was the medium A supplemented with 2 mM 1,4-dithiothreitol (DTT), 1 mM phenylmethyl sulfonyl fluoride (PMSF), […] leupeptin, and […] pepstin A but minus 250 mM mannitol. [^3H](+)ABA (American Radiolabeled Chemicals, 2.37×10^12 Bq mmol^−1, purity 98.4%) at 30 nM, or at a step gradient of concentrations from 0 to 70 nM (when analyzing ABA binding kinetics, see FIG. 1a, d1), together with 2 μg purified yeast-expressed ABAR/CHLH protein or 50 μg proteins of the crude extracts from two-week-old Arabidopsis seedlings, was added into the medium A. The total volume for the binding assays was adjusted to 200 μl. The mixtures were incubated at 25° C. for 30 min, and then quickly placed on ice. Following the addition of 100 μl 0.5% (w/v) Dextran T70-coated charcoal (DCC) to remove the free [^3H]ABA by adsorption, the mixtures were maintained on ice for 5 min, and then centrifuged to remove DCC before the radioactivity in the supernatant was counted. The specific binding was determined by the difference between the radioactivity bound to the immuno-purified ABAR protein or crude extracts of Arabidopsis seedlings incubated only with [^3H]ABA (total binding) and radioactivity bound in the presence of 1,000-fold molar excess of unlabeled (+)-ABA (Sigma; non-specific binding. Non-specific binding in all the assays was lower than 10% of the total binding, see FIG. 1a, d1). The unlabeled ABA was added into the incubation medium at the same time with [^3H]ABA. The ABA-binding activity of the crude ABA-binding protein from Arabidopsis seedling was expressed as the number of nanomoles of [^3H]ABA specifically bound per gram of protein, and that of the immuno-purified ABAR protein as the number of moles of [^3H]ABA per mole of protein. The stereo-specificity of the ABA-binding was assayed as described previously (Zhang, D. P. et al., Plant physiol. 128:714-725 (2002)). […] The conditions of incubation were the same as described above (the incubation medium containing 30 nM [^3H]ABA), and the two ABA isomers and (+)-ABA were assayed in the concentrations ranging from 1 to 1000-fold molar excess of [^3H]ABA.
For the assays of ABA binding in transgenic ABAR-RNAi and -overexpressor plants, we used more than three lines for each type of the transgenic plants and the results obtained were similar. Thus, only were the data with RNAi line 12 and overexpressor line 1 (see FIG. 5) shown in the text.

[2] = target: T2, Arabidopsis ABAR/CHLH (H subunit of Mg-chelatase) (Arabidopsis thaliana, UniProt Q9FNB0); test: ABA binding assay with purified yeast-expressed ABAR/CHLH
T2 construct: 6xHis; made in house; host or cells: Pichia methanolica (Pichia Methanolica Expression kit, Invitrogen)
T2 sequence (Q9FNB0 50-1381): T1 sequence (Q9FNB0 50-1381)
Description: Full-length ABAR/CHLH coding sequence was PCR-amplified with forward primer 5′-[…]-3′ (SEQ ID NO:30) and reverse primer 5′-[…]-3′ (SEQ ID NO:31). The recombinant ABAR/CHLH was expressed in yeast as a fusion protein with a 6×His (SEQ ID NO:32) tag by using Pichia Methanolica Expression kit (Invitrogen) and the fusion protein was affinity-purified according to manufacturer's instructions.
as §1

CC1=CC(=O)CC(C)(C)C1(O)/C=C/C(C)=C\C(=O)O (stereo not drawn) [ABA, abscisic acid]
Kd ([1]; across WT, RNAi and overexpressing leaf extracts, read-out: Kd): 35 to 38 nM | Bmax ([1]; leaf extracts of RNAi transgenic plants): 25 nmol/g | Kd ([1]; leaf extracts of RNAi transgenic plants, read-out: Kd): 36 nM | Bmax ([1]; leaf extracts of overexpressors of ABAR/CHLH gene (OE, line 1)): 80 nmol/g | Kd ([1]; leaf extracts of overexpressors of ABAR/CHLH gene (OE, line 1), read-out: Kd): 38 nM | Bmax (maximum binding) ([1]; leaf extracts of wild-type plants (WT)): 60 nmol ABA g^−1 crude protein | Kd ([1]; leaf extracts of wild-type plants (WT), read-out: Kd (equilibrium dissociation constant)): 35 nM | Kd [2]: 32 nM | maximum binding (Bmax) ([2]; pure yeast-expressed ABAR, Scatchard plot): 1.28 mol ABA per mol of protein
